From US9624219B2, “Compound (S) and (R)-N-(2-fluoropyridin-4-yl)-3-methyl-2-(5-methyl-2,4-dioxo-1,2-dihydropyrido[3,4-d]pyrimidin-3(4H)-yl)butanamide and use” (GlaxoSmithKline Intellectual Property Development Limited, priority 2015, dated 2017)
Converted amounts (≈) assume the structure as drawn.

Legend:
[1] = Solubility assessment in FaSSIF (equilibrium solubility); type: physicochemical; conditions: thermodynamic from solid, 4 hr at room temperature, LC-MS
Protocol: Solubility Assessment in FaSSIF
Organic solvents of HPLC grade were used. Ultra pure water (Milli-Q grade) was used. Buffers were prepared with ultra pure water and filtered using 0.45μ nylon filters.
Determination of Equilibrium Solubility (Assuming Chemical Stability in the Desired Solvent is not a Problem).
• a) 1 mg of solid compound was weighted in one 4 mL glass vial and 1 mL of FaSSIF was added. All these samples were prepared by duplicate. • b) The samples were stirred (roller mixer) for 4 hr at room temperature. If required, additional solid compound (0.1 mg) was added to maintain excess of it (saturated solutions). • c) After 4 hours, the samples were centrifuged (10000 rpm, 10 min.) and the supernatants were transfer to an HPLC vial and analysed by LC-MS (previous dilution with mobile phase when needed). • d) The pH of the final solution in each sample was measured with a pH-meter (WTW pH330i and a pH-electrode Sentix 41). LC-MS Assay for Analytical Quantification
All supernatants were analysed by LC-MS. Quantification of those samples was carried out against calibration curves obtained from 1 mg/mL DMSO (Aldrich cat. ref.: 27685-5) stock solutions, by dilution with the mobile phase used in the chromatography. Depending on the solubility range, U.V. (1 μg/mL to 100 μg/mL) or MS (1 μg/mL to 1 ng/mL) detector were used in the quantification. […]

[2] = system: Plasmodium falciparum Pf3D7^0087/N9; test: P. falciparum in vivo efficacy assay (mouse model); set-up: species or system NODscidIL2Rγ^null mice engrafted with human erythrocytes; conditions: interval of confidence 95%
Protocol: P. falciparum In Vivo Efficacy Assay.
Antimalarial in vivo efficacy was determined using the P. falciparum mouse model following the procedure described in: Jimenez-Diaz, M. B., Mulet, T., Viera, S., Gómez, V., Garuti, H., Ibañez, J., Alvarez-Doval, A., Shlutz, D. L., Martinez, A., Improved Murine Model Of Malaria Using Plasmodium falciparum (Competent Strains and Non-Myelodepleted NOD-scid IL2R_null Mice Engrafted with Human Erythrocytes) Antimicrob. Agents Chemother 2009, 53 (10), 4533-4536.
The goal of this study is to assess the therapeutic efficacy of Example 1 against Plasmodium falciparum Pf3D7^0087/N9 growing in peripheral blood of NODscidIL2Rγ^null mice engrafted with human erythrocytes. The levels of Example 1 are measured in serial peripheral blood samples obtained from each mouse of the efficacy experiment during the first 23 hrs after the first dose. The area under the curve of levels of compound is used to estimate the exposure in blood during the first 23 hours after the first administration (AUC0-23h).
The effect of Example 1 on P. Falciparum Pf3D7^0087/N9 was assessed by microscopy and flow cytometry.

P. Falciparum Pf3D7A = test: P. falciparum growth inhibition assay ([3H]hypoxanthine incorporation); type: cell-based; conditions: Plasmodium falciparum, 48 h, read-out: average Pf IC50
Protocol: P. falciparum Growth Inhibition Assay. The sensitivity of P. falciparum infected erythrocytes to the compound is determined in triplicate using the [^3H]hypoxanthine incorporation method with an inoculum of 0.5% parasitemia (ring stage) and 2% hematocrit. The parasites were grown in RPMI 1640 and supplemented with […] (or 10% serum). Plates are incubated at 37° C., 5% CO2, 5% O2, 90% N2. After 24 h of incubation, [^3H]hypoxanthine is added and plates are incubated for another 24 h. After that period, plates are harvested on a glass fiber filter using a TOMTEC Cell harvester 96. Filters are dried and melt on scintillator sheets and the bound radioactivity is quantified by use of a Wallac Microbeta Trilux (Model 1450 LS-Perkin Elmer). IC50s are determined using Grafit 5 program (Grafit program; Erithacus Software, Horley, Surrey, United Kingdom).

## Cc1cncc2[nH]c(=O)n([C@H](C(=O)Nc3ccnc(F)c3)C(C)C)c(=O)c12 [Example 1, (S)—N-(2-fluoropyridin-4-yl)-3-methyl-2-(5-methyl-2,4-dioxo-1,2-dihydropyrido[3,4-d]pyrimidin-3(4H)-yl)butanamide]
[1]
  solubility at 4 h: 426 µg/mL (≈ 1150 µM)
[2]; P. falciparum Pf3D7^0087/N9 in humanised NODscidIL2Rγnull mice
  mean ED90: 0.53 mg/kg
[2]; blood exposure at ED90 (AUC0-23h after first dose), P. falciparum mouse model
  mean AUCED90: 0.18 μg·h·mL-1·day-1
P. Falciparum Pf3D7A
  IC50: 32 nM
